Nine compounds from patent US4065570A (priority 1975, dated 1977) can be followed below.

The test system of data set [1] is Polio I. Kind of data set: cells. The class given is cell-based. The note with it: Primates.
In data set [2] the test system is Polio I. Kind of data set: organism not typed. The class given is cell-based. The note with it: Vero.
The nature of data set [3]: cytotoxicity against Vero cells. The class given is cell-based, African green monkey. As to conditions: african green monkey. Here is the method: (§1) In preparing the compounds for testing, they were handled aseptically throughout. The compounds were dissolved in a minimum amount of a suitable solvent, and the final dilutions were made up to the required volume in a complete culture medium in a concentration not exceeding the predetermined maximum non-cytotoxic levels.
(§2) The cell cultures used in all primary in vitro antipicorna virus screening tests were an established cell line of the African green monkey kidney (VERO), a primary cell culture of the Cercopythecus monkey kidney, or human embryonic lung diploid cells WI-38.
(§3) The cytotoxic stuides were performed on each of the compounds to determine the level of response of the cells used to the potentially toxic action of the substances.
(§4) The cells were grown in test tubes in a suitable medium. Immediately before use the initial medium was replaced with the one which contained the test compound in an appropriate concentration. After the virus was added, the infected culture was incubated at 37° C for a number of days and the cytopathic effect of the virus observed and recorded. The results were read every day in all of the tubes and the destruction of cells assessed in precentage of the cell sheet destroyed: 0-25-50-75-100%. As controls, cells with only virus (for cytopathic effect) or with only the compound (for cytotoxic effect) were used as well as the normal, uninfected cells (no cytotoxic -- no cytopathic effects).

For data set [4], the system named is viruses of the Picorna group. Kind of data set: antiviral activity (general statements). Type of data set: cell-based. As to conditions: result in words. The procedure: The in vitro activity of representative compounds of the present invention are set forth below.
as §1, §2, §4
Net difference in cytopathic effect between treated and control tubes expressed in percentage give the extent of the inhibitory activity of the substance.

In another data set the test system is Vero cells. Nature of the data set: cytotoxicity against Vero cells. The class given is cell-based, African green monkey. As to conditions: Vero cells; for Cytotoxicity CTD50: 50% inhibition of the cell growth; for Cytotoxicity CTD0: maximal non-toxic concentration. The procedure:
as §1, §2, §3, §4

Converted amounts (≈) assume the structure as drawn. “And” between values parts separate entries of the source, which are not always exact repeats. Identical values can stand only once.

By inhibition is commonly meant the relative decrease from the control value, in per cent. In the case of `COc1ccc(C=C2NC(=O)NC2=O)cc1OC` [5-(3',4'-DIMETHOXYBENZAL) HYDANTOIN, 5-(3',4'-Dimethoxybenzal) hydantoin], in the data set on Polio I [1], 50 µg/mL produced 34% inhibition and at 100 µg/mL the inhibition was 45%.

The compound `COc1ccc(C=C2C(=O)N(C(C)=O)C(=O)N2C(C)=O)cc1OC` [Example 32, N,N-diacetylated 5-(3',4'-dimethoxybenzal) hydantoin] gave an inhibition at 1 µg/mL in the data set on Polio I [2] (316 TCID50, 1 μg/ml) of 100%. Besides, at 5 µg/mL the inhibition with Polio I [2] (316 TCID50, 5 μg/ml) was 100%. The same compound displayed an inhibition at 10 µg/mL with Polio I [2] (316 TCID50, 10 μg/ml) of 100%. Further, 50 µg/mL produced 100% inhibition with Polio I [2] (316 TCID50, 50 μg/ml). Also, the CC50 in data set [3] (vero cells, read-out: Cytotoxicity CTD50) amounted to 33 µg/mL (≈ 99.3 µM). Besides, the MNTC in data set [3] (Vero cells, maximal non-toxic concentration, read-out: Cytotoxicity CTD0) is 10 µg/mL. For the same compound, the “anti-viral activity in tissue culture tests” value in data set [4] is “much greater anti-viral activity than the former”.

For orientation: % Inhibition means the relative decrease from the control value, in per cent. Higher therefore signals a response far below the control. Consider “Acetylated 5-(2',4',5'-trimethoxybenzal) hydantoin [Example 22]”, for which the “% Inhibition” value in the data set with Polio I [2] (10 TCID50, 0.01 μg/ml) came to 4%; with Polio I [2] (10 TCID50, 0.03 μg/ml) it was 8%; in the data set with Polio I [2] (10 TCID50, 0.07 μg/ml) it was 27%; with Polio I [2] (10 TCID50, 0.1 μg/ml), 54%; in the data set with Polio I [2] (10 TCID50, 0.3 μg/ml) it was 98%; with Polio I [2] (10 TCID50, 0.7 μg/ml) it was 98%. Moreover, the “% Inhibition” value was 100% in the data set with Polio I [2] (10 TCID50, 1 μg/ml); 0% in the data set with Polio I [2] (100 TCID50, 0.01 μg/ml); 0% with Polio I [2] (100 TCID50, 0.03 μg/ml); 25% in the data set on Polio I [2] (100 TCID50, 0.07 μg/ml); 50% in the data set with Polio I [2] (100 TCID50, 0.1 μg/ml); 90% in the data set with Polio I [2] (100 TCID50, 0.3 μg/ml). Moreover, the “% Inhibition” value in the data set on Polio I [2] (100 TCID50, 0.7 μg/ml) is 93%; in the data set on Polio I [2] (100 TCID50, 1 μg/ml) it was 100%. The “Cytotoxicity CTD50” value in the data set with Vero cells was above 100 µg/mL. In addition, in the data set on Vero cells, the “Cytotoxicity CTD0” value was 1 µg/mL.

Turning to “Acetylated 5-(3',4',5'-trimethoxybenzal) hydantoin [Example 23]”, the “% Inhibition” value in the data set with Polio I [2] (316 TCID50, 0.1 μg/ml) was determined as 0%; with Polio I [2] (316 TCID50, 0.3 μg/ml), 14%; with Polio I [2] (316 TCID50, 0.7 μg/ml) it was 36%; with Polio I [2] (316 TCID50, 1 μg/ml), 46%; in the data set on Polio I [2] (316 TCID50, 3.3 μg/ml), 56%; with Polio I [2] (316 TCID50, 6.7 μg/ml), 72%. In addition, the “% Inhibition” value in the data set with Polio I [2] (316 TCID50, 10 μg/ml) was determined as 96%. Besides, the “Cytotoxicity CTD50” value with Vero cells worked out at 50 µg/mL. Besides, the “Cytotoxicity CTD0” value in the data set with Vero cells was 10 µg/mL.

As for “Acetylated 5-(3',4'-dimethoxybenzal) hydantoin”, the “degree of antiviral activity” value in data set [4] (listed as Example 30) is “highly effective against Picorna group of viruses”; in data set [4] (listed as acetylated 5-(3',4'-dimethoxybenzal) hydantoin (anhydrous sodium acetate and ace)), “exceptionally good antiviral activity”.

Consider “Acetylated 5-(3',5'-dimethoxybenzal) hydantoin [Example 21]”, for which the “% Inhibition” value with Polio I [2] (10 TCID50, 0.5 μg/ml) turned out to be 15%; in the data set with Polio I [2] (10 TCID50, 1 μg/ml), 50%; in the data set with Polio I [2] (10 TCID50, 5 μg/ml) it was 100%; in the data set on Polio I [2] (10 TCID50, 10 μg/ml) it was 100%; with Polio I [2] (100 TCID50, 0.5 μg/ml), 0%; with Polio I [2] (100 TCID50, 1 μg/ml) it was 32%. Moreover, the “% Inhibition” value in the data set with Polio I [2] (100 TCID50, 5 μg/ml) stood at 100%; with Polio I [2] (100 TCID50, 10 μg/ml) it was 100%. Further, in the data set on Vero cells, the “Cytotoxicity CTD50” value is > 100 µg/mL and 100 µg/mL. The “Cytotoxicity CTD0” value with Vero cells amounted to 100 µg/mL.

In the case of “Acetylated 5-(3'-methoxy-4'-acetoxybenzal) hydantoin [Example 15]”, in the data set on Vero cells, the “Cytotoxicity CTD50” value is above 100 µg/mL and the “Cytotoxicity CTD0” value was above 10 µg/mL.

In the case of “Acetylated 5-benzalhydantoin [Example 16]”, in the data set on Vero cells, the “Cytotoxicity CTD50” value was 83 µg/mL and the “Cytotoxicity CTD0” value turned out to be 10 µg/mL.

For the compound “N-monoacetylated 5-(3',4'-dimethoxybenzal) hydantoin [Example 31]”, the “% Inhibition” value in the data set with Polio I [2] (316 TCID50, 1 μg/ml) stood at 0%; in the data set with Polio I [2] (316 TCID50, 5 μg/ml), 0%; with Polio I [2] (316 TCID50, 10 μg/ml), 7%; in the data set with Polio I [2] (316 TCID50, 50 μg/ml) it was 84%. In addition, the “Cytotoxicity CTD50” value in the data set on Vero cells stood at 100 µg/mL. Also, in the data set on Vero cells, the “Cytotoxicity CTD0” value was found to be 10 µg/mL. The “anti-viral activity in tissue culture tests” value in data set [4] is “more active than the unacetylated compound”.
